Measured values as given in patent US20240132521A1, “COMPOUNDS AND METHODS FOR MODULATING HER2” (Iambic Therapeutics, Inc., priority 2022, published 2024).

What was measured:
Format in all cases: cell-based
BaF3_EGFRWT cells = BaF3_EGFRWT cells (Homo sapiens, UniProt P00533); assay: Cell growth inhibition assay (CellTiterGlo), BaF3_EGFRWT; conditions: 3-day treatment, CellTiterGlo, read-out: Cell growth inhibition activity, EGFR WT
BaF3_HER2YVMA cells = BaF3_HER2YVMA cells (Homo sapiens, UniProt P04626, DUP772-775, cells depend on it); assay: Cell growth inhibition assay (CellTiterGlo), BaF3_HER2YVMA; conditions: 3-day treatment, CellTiterGlo, read-out: Cell growth inhibition activity, HER2 - YVMA
BaF3_HER2WT cells = BaF3_HER2WT cells (Homo sapiens, UniProt P04626); assay: Cell growth inhibition assay (CellTiterGlo), BaF3_HER2WT; conditions: 3-day treatment, CellTiterGlo, read-out: Cell growth inhibition activity, HER2 WT
Sequence of BaF3_HER2WT cells (P04626 whole entry, change not shown): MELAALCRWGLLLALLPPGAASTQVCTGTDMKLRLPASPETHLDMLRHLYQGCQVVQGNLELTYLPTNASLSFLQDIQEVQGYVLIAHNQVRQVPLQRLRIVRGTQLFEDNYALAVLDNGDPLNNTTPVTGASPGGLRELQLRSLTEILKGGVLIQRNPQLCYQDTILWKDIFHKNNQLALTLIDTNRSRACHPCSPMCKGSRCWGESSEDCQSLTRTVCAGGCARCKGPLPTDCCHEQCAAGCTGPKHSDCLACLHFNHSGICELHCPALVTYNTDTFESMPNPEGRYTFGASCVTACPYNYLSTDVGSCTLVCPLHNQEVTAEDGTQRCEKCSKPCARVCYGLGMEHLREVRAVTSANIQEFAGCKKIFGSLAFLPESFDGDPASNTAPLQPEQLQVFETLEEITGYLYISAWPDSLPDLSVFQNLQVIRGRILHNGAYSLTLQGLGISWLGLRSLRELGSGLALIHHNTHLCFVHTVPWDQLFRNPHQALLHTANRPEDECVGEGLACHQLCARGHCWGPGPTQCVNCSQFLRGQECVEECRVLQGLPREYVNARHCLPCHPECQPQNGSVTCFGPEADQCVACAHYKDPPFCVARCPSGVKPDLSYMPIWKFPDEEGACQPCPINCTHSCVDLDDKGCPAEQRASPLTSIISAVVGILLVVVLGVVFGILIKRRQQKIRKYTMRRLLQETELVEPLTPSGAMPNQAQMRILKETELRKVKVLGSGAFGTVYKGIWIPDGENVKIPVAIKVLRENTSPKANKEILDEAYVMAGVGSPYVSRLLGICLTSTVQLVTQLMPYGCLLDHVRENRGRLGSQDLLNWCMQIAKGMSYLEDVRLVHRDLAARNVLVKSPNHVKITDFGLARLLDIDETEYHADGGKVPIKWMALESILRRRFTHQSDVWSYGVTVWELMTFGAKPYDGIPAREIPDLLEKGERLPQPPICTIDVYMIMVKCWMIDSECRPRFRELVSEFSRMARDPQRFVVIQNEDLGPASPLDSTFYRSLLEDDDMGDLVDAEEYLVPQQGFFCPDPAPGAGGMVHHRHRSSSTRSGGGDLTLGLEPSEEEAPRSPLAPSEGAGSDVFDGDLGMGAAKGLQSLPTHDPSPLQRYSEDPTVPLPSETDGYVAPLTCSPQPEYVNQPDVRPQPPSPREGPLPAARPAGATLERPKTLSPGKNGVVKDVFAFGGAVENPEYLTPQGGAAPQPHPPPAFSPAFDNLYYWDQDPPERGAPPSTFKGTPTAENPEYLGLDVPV

Sequence of BaF3_HER2YVMA cells (P04626 with tags, fused parts or gaps DUP772-775): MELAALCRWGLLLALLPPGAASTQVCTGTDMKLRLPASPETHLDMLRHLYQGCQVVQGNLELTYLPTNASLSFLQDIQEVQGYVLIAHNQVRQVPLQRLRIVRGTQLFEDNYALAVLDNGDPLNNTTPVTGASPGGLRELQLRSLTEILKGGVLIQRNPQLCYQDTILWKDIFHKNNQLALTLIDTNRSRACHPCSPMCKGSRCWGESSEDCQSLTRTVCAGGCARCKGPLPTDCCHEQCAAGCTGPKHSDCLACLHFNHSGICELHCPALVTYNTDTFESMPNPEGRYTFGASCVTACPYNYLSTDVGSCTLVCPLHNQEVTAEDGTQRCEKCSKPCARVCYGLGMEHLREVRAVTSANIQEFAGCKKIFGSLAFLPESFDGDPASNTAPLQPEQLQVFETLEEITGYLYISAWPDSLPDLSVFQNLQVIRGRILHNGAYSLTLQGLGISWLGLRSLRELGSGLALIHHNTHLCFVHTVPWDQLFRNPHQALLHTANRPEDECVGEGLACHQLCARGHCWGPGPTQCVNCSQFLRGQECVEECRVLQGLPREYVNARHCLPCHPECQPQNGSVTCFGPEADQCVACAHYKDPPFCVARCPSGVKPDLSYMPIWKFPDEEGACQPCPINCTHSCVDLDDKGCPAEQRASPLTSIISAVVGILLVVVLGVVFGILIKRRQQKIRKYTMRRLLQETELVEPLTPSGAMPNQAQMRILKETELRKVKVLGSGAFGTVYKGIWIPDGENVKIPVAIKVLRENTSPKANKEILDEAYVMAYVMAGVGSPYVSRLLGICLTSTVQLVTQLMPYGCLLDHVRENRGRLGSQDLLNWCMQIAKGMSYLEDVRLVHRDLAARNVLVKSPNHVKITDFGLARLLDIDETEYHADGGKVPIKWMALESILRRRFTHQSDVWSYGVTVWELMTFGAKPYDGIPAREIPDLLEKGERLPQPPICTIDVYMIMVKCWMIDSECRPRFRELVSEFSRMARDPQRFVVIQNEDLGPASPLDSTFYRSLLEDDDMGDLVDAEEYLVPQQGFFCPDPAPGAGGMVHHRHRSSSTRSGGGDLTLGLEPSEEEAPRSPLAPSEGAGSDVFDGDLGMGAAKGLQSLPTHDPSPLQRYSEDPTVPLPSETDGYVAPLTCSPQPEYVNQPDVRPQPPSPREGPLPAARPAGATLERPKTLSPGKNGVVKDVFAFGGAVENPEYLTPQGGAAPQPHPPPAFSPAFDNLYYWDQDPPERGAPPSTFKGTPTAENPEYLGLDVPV
Sequence of BaF3_EGFRWT cells (P00533 whole entry, change not shown): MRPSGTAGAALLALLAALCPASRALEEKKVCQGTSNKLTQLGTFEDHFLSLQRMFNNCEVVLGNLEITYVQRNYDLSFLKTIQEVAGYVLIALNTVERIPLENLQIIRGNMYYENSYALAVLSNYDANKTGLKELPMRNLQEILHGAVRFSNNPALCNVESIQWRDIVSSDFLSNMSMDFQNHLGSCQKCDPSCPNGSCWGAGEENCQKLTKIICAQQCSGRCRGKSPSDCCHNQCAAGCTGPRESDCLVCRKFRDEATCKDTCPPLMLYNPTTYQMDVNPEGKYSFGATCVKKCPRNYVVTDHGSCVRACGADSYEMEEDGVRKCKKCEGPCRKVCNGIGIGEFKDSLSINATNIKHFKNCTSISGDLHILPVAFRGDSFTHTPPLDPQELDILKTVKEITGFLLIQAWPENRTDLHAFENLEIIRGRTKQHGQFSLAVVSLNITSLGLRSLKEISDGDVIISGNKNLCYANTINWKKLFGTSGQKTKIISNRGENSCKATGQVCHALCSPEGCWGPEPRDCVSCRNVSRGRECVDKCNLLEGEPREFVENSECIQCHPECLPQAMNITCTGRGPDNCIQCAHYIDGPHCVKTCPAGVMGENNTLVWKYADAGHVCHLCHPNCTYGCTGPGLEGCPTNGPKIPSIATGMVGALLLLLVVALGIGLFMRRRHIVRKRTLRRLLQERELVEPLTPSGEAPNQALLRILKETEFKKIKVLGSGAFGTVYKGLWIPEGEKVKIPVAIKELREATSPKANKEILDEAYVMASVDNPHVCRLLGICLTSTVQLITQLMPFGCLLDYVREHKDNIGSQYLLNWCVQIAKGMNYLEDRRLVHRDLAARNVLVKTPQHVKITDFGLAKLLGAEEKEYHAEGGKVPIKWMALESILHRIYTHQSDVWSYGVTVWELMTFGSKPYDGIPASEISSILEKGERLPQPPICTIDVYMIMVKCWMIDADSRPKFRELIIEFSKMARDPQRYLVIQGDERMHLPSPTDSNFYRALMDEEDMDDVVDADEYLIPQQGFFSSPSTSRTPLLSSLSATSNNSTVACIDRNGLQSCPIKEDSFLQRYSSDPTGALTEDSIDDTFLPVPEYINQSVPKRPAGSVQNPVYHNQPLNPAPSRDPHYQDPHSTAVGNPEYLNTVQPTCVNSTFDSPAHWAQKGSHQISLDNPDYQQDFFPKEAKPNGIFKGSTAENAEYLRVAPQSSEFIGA

| Compound | GI50 (BaF3_EGFRWT cells) [nM] | GI50 (BaF3_HER2YVMA cells) [nM] | GI50 (BaF3_HER2WT cells) [nM] |
| --- | --- | --- | --- |
| Cc1cc(Nc2ncnn3ccc(C4=CCN(C(=O)/C=C/CN(C)C)CC4)c23)ccc1Oc1ccn2ncnc2c1 [Example 53, (E)-1-(4-(4-((4-([1,2,4]triazolo[1,5-a]pyridin-7-yloxy)-3-methylphenyl)amino)pyrrolo[2,1-f][1,2,4]triazin-5-yl)-3,6-dihydropyridin-1(2H)-yl)-4-(dimethylamino)but-2-en-1-one] | 1500 to 5000 | < 200 | < 200 |
| Cc1cc(Nc2ncnn3ccc(N4CCN(C(=O)/C=C/CN(C)C)CC4=O)c23)ccc1Oc1ccn2ncnc2c1 [Example 54, (E)-1-(4-((4-([1,2,4]triazolo[1,5-a]pyridin-7-yloxy)-3-methylphenyl)amino)pyrrolo[2,1-f][1,2,4]triazin-5-yl)-4-(4-(dimethylamino)but-2-enoyl)piperazin-2-one] | 1500 to 5000 | 1500 to 5000 | 500 to 1500 |
| C=CC(=O)N1CCC2CCC(C1)N2c1ccn2ncnc(Nc3ccc(Oc4ccn5ncnc5c4)c(C)c3)c12 (stereo not drawn) [Example 55, 1-(9-(4-((4-([1,2,4]triazolo[1,5-a]pyridin-7-yloxy)-3-methylphenyl)amino)pyrrolo[2,1-f][1,2,4]triazin-5-yl)-3,9-diazabicyclo[4.2.1]nonan-3-yl)prop-2-en-1-one] | 1500 to 5000 | 500 to 1500 | < 200 |
| Cc1cc(Nc2ncnn3ccc(C4CCN(C(=O)/C=C/CN5CCOCC5)CC4)c23)ccc1Oc1ccn2ncnc2c1 [Example 56, (E)-1-(4-(4-((4-([1,2,4]triazolo[1,5-a]pyridin-7-yloxy)-3-methylphenyl)amino)pyrrolo[2,1-f][1,2,4]triazin-5-yl)piperidin-1-yl)-4-morpholinobut-2-en-1-one] | 1500 to 5000 | < 200 | < 200 |
| Cc1cc(Nc2ncnn3ccc(C4CCN(C(=O)/C=C/CN5CCCCC5)CC4)c23)ccc1Oc1ccn2ncnc2c1 [Example 57, (E)-1-(4-(4-((4-([1,2,4]triazolo[1,5-a]pyridin-7-yloxy)-3-methylphenyl)amino)pyrrolo[2,1-f][1,2,4]triazin-5-yl)piperidin-1-yl)-4-(piperidin-1-yl)but-2-en-1-one] | 1500 to 5000 | < 200 | < 200 |
| COC/C=C/C(=O)N1CCC(c2ccn3ncnc(Nc4ccc(Oc5ccn6ncnc6c5)c(C)c4)c23)CC1 [Example 58, (E)-1-(4-(4-((4-([1,2,4]triazolo[1,5-a]pyridin-7-yloxy)-3-methylphenyl)amino)pyrrolo[2,1-f][1,2,4]triazin-5-yl)piperidin-1-yl)-4-methoxybut-2-en-1-one] | 1500 to 5000 | 500 to 1500 | < 200 |
| C#CCN(C)C/C=C/C(=O)N1CCC(c2ccn3ncnc(Nc4ccc(Oc5ccn6ncnc6c5)c(C)c4)c23)CC1 [Example 59, (E)-1-(4-(4-((4-([1,2,4]triazolo[1,5-a]pyridin-7-yloxy)-3-methylphenyl)amino)pyrrolo[2,1-f][1,2,4]triazin-5-yl)piperidin-1-yl)-4-(methyl(prop-2-yn-1-yl)amino)but-2-en-1-one] | 1500 to 5000 | 200 to 500 | < 200 |
| Cc1cc(Nc2ncnn3ccc(C4CN(C(=O)/C=C/CN5CCC(F)CC5)C4)c23)ccc1Oc1ccn2ncnc2c1 [Example 62, (E)-1-(3-(4-((4-([1,2,4]triazolo[1,5-a]pyridin-7-yloxy)-3-methylphenyl)amino)pyrrolo[2,1-f][1,2,4]triazin-5-yl)azetidin-1-yl)-4-(4-fluoropiperidin-1-yl)but-2-en-1-one] | 1500 to 5000 | < 200 | < 200 |
| Cc1cc(Nc2ncnn3ccc(N4CCN(C(=O)C(F)Cl)CC(F)(F)C4)c23)ccc1Oc1ccn2ncnc2c1 (stereo not drawn) [Example 63, 1-(4-(4-((4-([1,2,4]triazolo[1,5-a]pyridin-7-yloxy)-3-methylphenyl)amino)pyrrolo[2,1-f][1,2,4]triazin-5-yl)-6,6-difluoro-1,4-diazepan-1-yl)-2-chloro-2-fluoroethan-1-one] | 1500 to 5000 | 500 to 1500 | 500 to 1500 |
| Cc1cc(Nc2ncnn3ccc(C4CCN(C(=O)/C=C/C5CCCN5C)CC4)c23)ccc1Oc1ccn2ncnc2c1 (stereo not drawn) [Example 65, (E)-1-(4-(4-((4-([1,2,4]triazolo[1,5-a]pyridin-7-yloxy)-3-methylphenyl)amino)pyrrolo[2,1-f][1,2,4]triazin-5-yl)piperidin-1-yl)-3-(1-methylpyrrolidin-2-yl)prop-2-en-1-one] | 1500 to 5000 | < 200 | < 200 |

Now from value to compound:

| GI50 (BaF3_EGFRWT cells) [nM] | GI50 (BaF3_HER2YVMA cells) [nM] | GI50 (BaF3_HER2WT cells) [nM] | Compound |
| --- | --- | --- | --- |
| 1500 to 5000 | < 200 | < 200 | COC1CCN(C/C=C/C(=O)N2CC(c3ccn4ncnc(Nc5ccc(Oc6ccn7ncnc7c6)c(C)c5)c34)C2)CC1 [Example 42, (E)-1-(3-(4-((4-([1,2,4]triazolo[1,5-a]pyridin-7-yloxy)-3-methylphenyl)amino)pyrrolo[2,1-f][1,2,4]triazin-5-yl)azetidin-1-yl)-4-(4-methoxypiperidin-1-yl)but-2-en-1-one] |
| 1500 to 5000 | 200 to 500 | < 200 | Cc1cc(Nc2ncnn3ccc(C4CN(C(=O)/C=C/CC(C)C)C4)c23)ccc1Oc1ccn2ncnc2c1 [Example 43, (E)-1-(3-(4-((4-([1,2,4]triazolo[1,5-a]pyridin-7-yloxy)-3-methylphenyl)amino)pyrrolo[2,1-f][1,2,4]triazin-5-yl)azetidin-1-yl)-5-methylhex-2-en-1-one] |
| 1500 to 5000 | < 200 | < 200 | C=CC(=O)N1CC2CCC(C1)N2c1ccn2ncnc(Nc3ccc(Oc4ccn5ncnc5c4)c(C)c3)c12 [Example 44, 1-(8-(4-((4-([1,2,4]triazolo[1,5-a]pyridin-7-yloxy)-3-methylphenyl)amino)pyrrolo[2,1-f][1,2,4]triazin-5-yl)-3,8-diazabicyclo[3.2.1]octan-3-yl)prop-2-en-1-one] |
| 1500 to 5000 | < 200 | < 200 | Cc1cc(Nc2ncnn3ccc(N4C5CCC4CN(C(=O)/C=C/CN(C)C)C5)c23)ccc1Oc1ccn2ncnc2c1 [Example 45, (E)-1-(8-(4-((4-([1,2,4]triazolo[1,5-a]pyridin-7-yloxy)-3-methylphenyl)amino)pyrrolo[2,1-f][1,2,4]triazin-5-yl)-3,8-diazabicyclo[3.2.1]octan-3-yl)-4-(dimethylamino)but-2-en-1-one] |
| 200 to 500 | < 200 | < 200 | C=CC(=O)N1C2CCC1CN(c1ccn3ncnc(Nc4ccc(Oc5ccn6ncnc6c5)c(C)c4)c13)C2 [Example 46, 1-(3-(4-((4-([1,2,4]triazolo[1,5-a]pyridin-7-yloxy)-3-methylphenyl)amino)pyrrolo[2,1-f][1,2,4]triazin-5-yl)-3,8-diazabicyclo[3.2.1]octan-8-yl)prop-2-en-1-one] |
| 1500 to 5000 | < 200 | < 200 | Cc1cc(Nc2ncnn3ccc(N4CC5CCC(C4)N5C(=O)/C=C/CN(C)C)c23)ccc1Oc1ccn2ncnc2c1 [Example 47, (E)-1-(3-(4-((4-([1,2,4]triazolo[1,5-a]pyridin-7-yloxy)-3-methylphenyl)amino)pyrrolo[2,1-f][1,2,4]triazin-5-yl)-3,8-diazabicyclo[3.2.1]octan-8-yl)-4-(dimethylamino)but-2-en-1-one] |
| 1500 to 5000 | 1500 to 5000 | 200 to 500 | C=C(CN(C)C)C(=O)N1C2CCC1CN(c1ccn3ncnc(Nc4ccc(Oc5ccn6ncnc6c5)c(C)c4)c13)C2 [Example 48, 1-(3-(4-((4-([1,2,4]triazolo[1,5-a]pyridin-7-yloxy)-3-methylphenyl)amino)pyrrolo[2,1-f][1,2,4]triazin-5-yl)-3,8-diazabicyclo[3.2.1]octan-8-yl)-2-((dimethylamino)methyl)prop-2-en-1-one] |
| 1500 to 5000 | < 200 | < 200 | C=C(CN(C)C)C(=O)N1CC2CCC(C1)N2c1ccn2ncnc(Nc3ccc(Oc4ccn5ncnc5c4)c(C)c3)c12 [Example 49, 1-(8-(4-((4-([1,2,4]triazolo[1,5-a]pyridin-7-yloxy)-3-methylphenyl)amino)pyrrolo[2,1-f][1,2,4]triazin-5-yl)-3,8-diazabicyclo[3.2.1]octan-3-yl)-2-((dimethylamino)methyl)prop-2-en-1-one acetate] |
| 1500 to 5000 | 500 to 1500 | 200 to 500 | Cc1cc(Nc2ncnn3ccc(C4(O)CCN(C(=O)/C=C/CN(C)C)CC4)c23)ccc1Oc1ccn2ncnc2c1 [Example 50, (E)-1-(4-(4-((4-([1,2,4]triazolo[1,5-a]pyridin-7-yloxy)-3-methylphenyl)amino)pyrrolo[2,1-f][1,2,4]triazin-5-yl)-4-hydroxypiperidin-1-yl)-4-(dimethylamino)but-2-en-1-one] |
| 1500 to 5000 | < 200 | < 200 | Cc1cc(Nc2ncnn3ccc(C4(O)CN(C(=O)/C=C/CN(C)C)C4)c23)ccc1Oc1ccn2ncnc2c1 [Example 51, (E)-1-(3-(4-((4-([1,2,4]triazolo[1,5-a]pyridin-7-yloxy)-3-methylphenyl)amino)pyrrolo[2,1-f][1,2,4]triazin-5-yl)-3-hydroxyazetidine-1-yl)-4-(dimethylamino)but-2-en-1-one] |
| 1500 to 5000 | 500 to 1500 | 200 to 500 | COC1(c2ccn3ncnc(Nc4ccc(Oc5ccn6ncnc6c5)c(C)c4)c23)CCN(C(=O)/C=C/CN(C)C)CC1 [Example 52, (E)-1-(4-(4-((4-([1,2,4]triazolo[1,5-a]pyridin-7-yloxy)-3-methylphenyl)amino)pyrrolo[2,1-f][1,2,4]triazin-5-yl)-4-methoxypiperidin-1-yl)-4-(dimethylamino)but-2-en-1-one] |
| 200 to 500 | < 200 | < 200 | Cc1cc(Nc2ncnn3ccc(C4CCN(C(=O)C#CCN(C)C)CC4)c23)ccc1Oc1ccn2ncnc2c1 [Example 64, 1-(4-(4-((4-([1,2,4]triazolo[1,5-a]pyridin-7-yloxy)-3-methylphenyl)amino)pyrrolo[2,1-f][1,2,4]triazin-5-yl)piperidin-1-yl)-4-(dimethylamino)but-2-yn-1-one] |
